Test results: patent US20120252784A1, “2,3,4-BENZOTHIADIAZEPINE-2,2-DIOXIDE DERIVATIVES” (priority 2009, published 2012)

Tested on: taurine
Test: Changes in amino acid neurotransmitter levels in the cortical area of male rats (HPLC, electrochemical detection)
Assay type: in vivo, rat
Settings: male SPDR rats, intraperitoneal, 0.4% aqueous methylcellulose suspension, decapitated 30 minutes after administration, compared to vehicle control group
Description: The in vivo biological effectiveness of the compounds of the present invention on the central nervous system was examined by the following experimental model.
Changes in Amino Acid Neurotransmitter Levels in the Cortical Area of Male Rats
Male SPDR rats weighing 200-250 g, were used in the experiments. Changes in the concentration of amino acid neurotransmitters were measured from cortical areas by high-performance liquid chromatography (HPLC) and electrochemical detection.
The investigations were carried out with two experimental groups wherein each group contained 8 animals. One group was administered intraperitoneally by vehicle only (control group). The other group was administered intraperitoneally by the compound of the Example 15, suspended in vehicle. The dose of administration was in the form of 0.4% aqueous methylcellulose suspension.
The animals were decapitated 30 minutes after the administration, brains have been removed and required brain regions were dissected. The tissues were stored at −70° C.
The tissues were homogenized in ice-cold 0.1 M perchlorate in 500 volume excess. […]
The tissue concentrations of the amino acids were measured by standard solutions containing amino acids with known concentration.

## CN1N=C(c2ccc(F)cc2)c2cc(Cl)ccc2CS1(=O)=O [Example 16, 7-Chloro-5-(4-fluoro-phenyl)-3-methyl-1,3-dihydro-2̂,4-benzothiadiazepin-2,2-dioxide]
  concentrations of the amino acid taurine in the frontal cortex: significantly increased
